Test [1] relates to WNT pathway reporter. Kind of test: GFP-based WNT reporter in stable MYC-CTNNB1 organoids. The format is cell-based, mouse. An excerpt: The library was further refined by performing dose-response curves on tumor organoids and primary human hepatocytes (FIG. 1C). In addition, stable MYC-CTNNB1 organoids expressing a GFP-based WNT reporter were created to assess direct transcriptional inhibition of the pathway. […] WNTinib was exemplary for its therapeutic index, as defined by its preferential activity in the CTNNB1-driven model as compared to hepatocytes.

The test system of test [2] is immune cell tumor infiltration. Kind of test: Immune cell profiling of tumors by spectral cytometry. The format is in vivo, mouse. The following applies: compared to vehicle or standard of care (sorafenib); six days after start of dosing. On the procedure: FIGS. 14A-14G show results pertaining the use of WNTinib in combination with immunotherapy. […] C57/BL6 mice were randomized into treatment groups using IVIS imaging to quantify tumor size based on luminescence signal intensity. After randomization, kinase inhibitors were dissolved in 25% cremaphor:ethanol in water and administered orally (30 mg/kg sorafenib, 20 mg/kg WNTinib) beginning 7 days after injection following 5 days on/2 days off dosing schedule. Immunotherapy (anti-PD-1) was administered via intraperitoneal injection on days 11, 13, and 15 after injection at 200 μg. Log-rank p-values for survival in drug treatment groups to vehicle group and median survival are shown. Mice were assigned to different treatment groups as follows: vehicle (25), sorafenib (10), aPD-1 (15), WNTinib (25), and WNTinib+aPD-1 (25). […] Significant differences between groups indicated by asterisks. ** P<0.005, *** P<0.0005, as calculated with an ANOVA with Tukey test for multiple comparisons. Animals were dosed via daily oral gavage using 20 mg/kg of WNTinib and 30 mg/kg of sorafenib. […] 3 animals per indicated groups were assessed using spectral cytometry panels for both lymphocytes and myeloid cells. […]
Next, the effect of WNTinib on immune cell tumor infiltration was evaluated.

In test [3] the test system is MYC-lucOS; CTNNB1 mutant HCC. Put plainly: Hydrodynamic tail vein model of CTNNB1-mutated HCC, survival. The class given is in vivo, C57/BL6 mice. The following applies: 5 days on/2 days off. On the procedure: A sterile 0.9% NaCl solution/plasmid mix was prepared containing DNA—12 μg of pT3-EF1α-MYC-IRES-luciferase-OS (MYC-lucOS), 10 μg of pT3-N90-CTNNB1 (CTNNB1), and a 4:1 ratio of transposon to SB13 transposase-encoding plasmid. A volume equivalent to 10% of mouse body weight was injected through the tail vein using a 3 mL syringe with a 26-gauge needle (11). Animals were monitored for 6 days, and bioluminescent signal from tumors was visualized using an IVIS Spectrum system. Anesthetized mice were imaged 5 minutes after intraperitoneal injection of 100 mg/kg D-luciferin (Thermo Fisher Scientific). IVIS Living Image software was used to quantify luciferase signal, which was normalized by subtracting background signal. […] Oral drug treatment began in randomized arms seven days after plasmid injection. Kinase inhibitors were prepared as stated above, and WNTinib and sorafenib were dosed at concentrations of 20 mg/kg and 30 mg/kg, respectively. Drugs were administered following a 5 days on/2 days off treatment schedule. Body weights were recorded daily, and animals were monitored for signs of sickness, tumor palpability, and death. Sick animals were sacrificed according to the ISMMS IACUC guidelines.
Given that tumors with dysregulated WNT signaling are associated with tumor immune exclusion and overall are refractory to treatment with immune checkpoint inhibitors, the efficacy of WNTinib was tested in combination with immunotherapy. First, a hydrodynamic tail vein mouse model of MYC-lucOS, CTNNB1 mutant HCC, which is known to be refractory to treatment with anti-PD-1 was used (Ruiz de Galarreta et al., “O-Catenin Activation Promotes Immune Escape and Resistance to Anti-PD-1 Therapy in Hepatocellular Carcinoma,” Cancer Discov. 9(8):1124-1141 (2019), which is hereby incorporated by reference in its entirety). C57/BL6 mice were randomized into treatment groups using IVIS imaging to quantify tumor size based on luminescence signal intensity. After randomization, kinase inhibitors were dissolved in 25% cremaphor:ethanol in water and administered orally (30 mg/kg sorafenib, 20 mg/kg WNTinib) beginning 7 days after injection following a 5 days on/2 days off dosing schedule. Immunotherapy (anti-PD-1) was administered via intraperitoneal injection on days 11, 13, and 15 after injection at […].

Test [4] relates to MYC-Tp53 tumor organoid allografts. Kind of test: MYC-Tp53 tumor organoid allografts. The format is in vivo, C57BL/6J mice. Particulars: 30 mg/kg daily oral gavage. On the procedure: 300,000 cells per allograft were prepared in 8 mg/mL Matrigel. 6-8-week-old C57BL/6J mice were shaved the day prior to injection. A 26^5/8-gauge needle was used to implant organoids into the flank in 100 μL Matrigel. Tumor allografts were measured daily with calipers, and upon an average volumetric measurement of 100 mm^3, animals were randomized and drug dosing was started. Drugs were dosed daily at 30 mg/kg via oral gavage. Tumor allografts were also measured daily.
MYC-CTNNB1 tumor organoids were engrafted into C57BL/6 mice and treatment was started when tumor volume reached 100 mm^3.

In test [5] the test system is kinome. Put plainly: Kinome profiling (KINOMEscan). The format is binding. On the procedure: WNTinib's inhibitory profile was performed using Eurofins' (DiscoverX) KINOMVEscan platform. Inhibition trees were visualized using KinMap (Eid et al., “KinMap: A Web-Based Tool for Interactive Navigation through Human Kinome Data,” BMC 10 Bioinformatics 18(1):16 (2017), which is hereby incorporated by reference in its entirety). For regorafenib and sorafenib, publicly available data was used to visualize inhibition trees (Uitdehaag et al., “Comparison of the Cancer Gene Targeting and Biochemical Selectivities of All Targeted Kinase Inhibitors Approved for Clinical Use,” Plos ONE 9(3):e92146 (2014) and Davis et al., “Comprehensive Analysis of Kinase Inhibitor Selectivity,” Nat. Biotechnol. 29(11):1046-1051 (2011), which are hereby incorporated by reference in their entirety).

The subject of test [6] is Advanced-stage HCC. The following applies: patients; cited from earlier work.

Consider `CNC(=O)c1cc(Oc2ccc(NC(=O)Nc3ccc(C(F)(F)C(F)(F)F)cc3)c(F)c2)ccn1` [WNTinib, 4-(3-fluoro-4-(3-(4-(perfluoroethyl)phenyl)ureido)phenoxy)-N-methylpicolinamide], for which, in test [1], the “WNT-driven GFP expression (WNT pathway reporter)” value was “only compound to downregulate WNT-driven GFP expression”. For the same molecule, in test [2], the “immune cell tumor infiltration” value was “significantly increase the number of CD45^+ cells, the ratio of CD4/CD8, and the number of neutrophils and reduce the number of B cells and immunosuppressed tissue associated macrophages (TAM) in tumors”. Also, in test [3] (WNTinib 20 mg/kg), the “remaining animals alive, time post final dosing” value is recorded as “over 300 days”; the “share of treatment arm that succumbed to death” value was 40%; the “survival benefit” value is “significant survival benefit”. Moreover, in test [4], the “activity in MYC-Tp53 allografts” value was “inactive”. In addition, in test [5] (compared with sorafenib and regorafenib), the “kinome selectivity (selectivity scores)” value was “generally less promiscuous than the parental compounds”. Further, the kinase targets maintained result in test [5] (in vitro kinase assays) was “maintains several of the proposed key targets of sorafenib and regorafenib, including c-KIT, PDGFRα/β, VEGFR1/2, RET and FLT3”.
For `CNC(=O)c1cc(Oc2ccc(NC(=O)Nc3ccc(Cl)c(C(F)(F)F)c3)cc2)ccn1` [sorafenib, reference compound], the survival benefit in test [3] (sorafenib 30 mg/kg) was found to be 7.5 days. Further, in test [4], the “activity in MYC-Tp53 allografts” value is given as “better activity”. The median survival in test [6] is given as 11-14 months.

These data come from patent publication US20230404985A1, “METHODS OF TREATING TUMORS AND CANCERS HAVING DYSREGULATED WNT SIGNALING PATHWAYS” (ICAHN SCHOOL OF MEDICINE AT MOUNT SINAI, priority 2020, published 2023).
